Target: T1, Aβ42 (amyloid-beta) (Homo sapiens, UniProt P05067)
T1 construct: gene APP; Aβ42
Assay: ThT fibril aggregation assay, […] Aβ[…] h at […] °C
Assay type: biochemical

T1 sequence (P05067 672-713): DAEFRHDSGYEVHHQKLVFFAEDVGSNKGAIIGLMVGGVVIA

Q: For `O=C(/C=C/c1ccc(O)c(O)c1)O[C@H](Cc1ccc(O)c(O)c1)C(=O)O` [Rosmarinic acid], which EC50 is on record?
A: 15 µM

Source: PMC12250624, “Anti-Amyloid Aggregation Effects of Gobaishi (Galla chinensis) and Its Active Constituents” (Molecules, 2025)
